System: Cats Suffering from HCM
Assay: Treatment of a cat suffering from HCM with acute circulatory failure (clinical case)
Assay type: in vivo
Protocol: A 15 year old castrated male tomcat of mixed breed (mother Persian, father European short hair, bodyweight 6 kg) was brought to the veterinary clinic in March 2008. The animal was lethargic and unable to move. Examination of the cardiovascular system indicated acute circulatory failure, accompanied with tachycardia (>180 bpm). Echocardiographic investigation indicated a thickened left ventricular wall and septum, which are related to HCM.
Because of the desperate situation 1.25 mg pimobendan were applied orally with the expectation/fear that this measure would/could probably further deteriorate the status of the cat.
This treatment is still being continued.

Row | SMILES | clinical symptoms / recovery (same cat, after insufficient furosemide, 1.25 mg pimobendan orally, single application) | left ventricular filling and systolic function (ultrasound) (same cat, continued treatment 20 microgram/kg/day pimobendan orally) | control of acute circulatory failure (clinical situation) (15 year old tomcat with HCM, 6 kg, furosemide 1 mg/kg i.v., immediate administration)
1 | COc1ccc(-c2nc3cc(C4=NNC(=O)CC4C)ccc3[nH]2)cc1 (stereo not drawn) [pimobendan, 4,5-dihydro-6-[2-(4-methoxyphenyl)-1H-benzimidazol-5-yl]-5-methyl-3 (2H)-pyridazinone] | clinical symptoms improved and the cat recovered within a few hours | significant recovery of left ventricular filling and systolic function | 
2 | NS(=O)(=O)c1cc(C(=O)O)c(NCc2ccco2)cc1Cl [furosemide] |  |  | did not result in a sufficient control of the situation
